Here are results for eight compounds from ChEMBL document CHEMBL4651402, “Screening of ~5500 FDA-approved drugs and clinical candidates for anti-SARS-CoV-2 activity” (2021).

The test system of one series is Vero C1008. The following applies: chlorocebus sabaeus, vero c1008, 48 h.
The subject of series [1] is SARS-CoV-2. The settings on record: vero c1008.
The test system of series [2] is SARS-CoV-2. Description: microbe, parasite or virus in culture. The series is classed as functional, organism-based, Chlorocebus sabaeus, Vero C1008.
The next series in a line: in vitro. The following applies: chlorocebus sabaeus, Vero E6 (Vero C1008) cells.
Series [3] has as its system SARS-CoV-2. Put plainly: microbe, parasite or virus in culture. The settings on record: Severe acute respiratory syndrome coronavirus 2, Vero C1008, 48 h.
[4] abbreviates: Severe acute respiratory syndrome coronavirus 2, Vero C1008, 48 h, read-out: IC50.
Where [5] appears, read: Severe acute respiratory syndrome coronavirus 2, Vero C1008, 48 h, read-out: pIC50 (converted).

Where “and” joins values, the source holds several entries; their conditions need not be identical. Equal values may be shown once.

As for FLUPENTIXOL, the CC50 in the series on Vero C1008 amounted to 7.67 µM. In the series with Vero C1008, the negative logarithm of the CC50 (pCC50) is listed as 5.12. In addition, the IC50 was 8.71 µM and > 20 µM in the series with SARS-CoV-2 [1]; over 100 µM in the series on SARS-CoV-2 [2] (vero c1008, read-out: IC50). The pIC50 in the series with SARS-CoV-2 [1] was 5.06 and < 4.7; in the series on SARS-CoV-2 [2] (vero c1008) it was under 4.

For `CCCCCCCCNC(C)C(O)c1ccc(SC(C)C)cc1` (centres undefined) [SULOCTIDIL], the CC50 at 48 h in “in vitro” (CC50) was 3.27 µM; in the series “in vitro” (pCC50), 3.24 µM. In addition, the IC50 with SARS-CoV-2 [1], in the series with SARS-CoV-2 [2] (setting [4]) and in the series with SARS-CoV-2 [2] (setting [5]) was over 100 µM throughout.

On to `OCCN1CCN(CC/C=C2/c3ccccc3Sc3ccc(Cl)cc32)CC1` [ZUCLOPENTHIXOL], for which the CC50 at 48 h in “in vitro” (CC50) was 6.68 µM; in the series “in vitro” (pCC50), 6.61 µM. Also, the IC50 is 7.24 µM and > 20 µM with SARS-CoV-2 [1]; over 100 µM in the series with SARS-CoV-2 [2] (setting [4]); over 100 µM in the series on SARS-CoV-2 [2] (setting [5]). Besides, the pIC50 with SARS-CoV-2 [1] was 5.14 and < 4.7.

With `CNC[C@H]1C[C@@H]2c3ccccc3Cc3ccc(F)cc3[C@H]2O1`, the CC50 at 48 h in “in vitro” (CC50) and in “in vitro” (pCC50) was 19.5 µM in each case. The CC50 in the series with Vero C1008 (48 h) was about 22.4 µM. The pCC50 in the series with Vero C1008 (48 h) is ~ 4.65. Besides, the IC50 in the series with SARS-CoV-2 [2] (setting [4]) is over 100 µM; in the series with SARS-CoV-2 [2] (setting [5]) it was over 100 µM; in the series on SARS-CoV-2 [2] (vero c1008, read-out: IC50), over 50.1 µM; in the series with SARS-CoV-2 [3], over 100 µM; in the series on SARS-CoV-2 [3] (read-out: pIC50 (converted)) it was over 100 µM. Moreover, the pIC50 in the series on SARS-CoV-2 [2] (vero c1008) was under 4.3.

As to `COc1cccc([C@@H](C)NCCCc2ccccc2Cl)c1`, the CC50 at 48 h in “in vitro” (CC50) and in the series “in vitro” (pCC50) was 28.2 µM throughout. For the same compound, the IC50 in the series on SARS-CoV-2 [1] was over 20 µM; with SARS-CoV-2 [2] (setting [4]), over 100 µM; in the series with SARS-CoV-2 [2] (setting [5]), over 100 µM; in the series on SARS-CoV-2 [3], 16.6 µM; in the series with SARS-CoV-2 [3] (read-out: pIC50 (converted)), 16.6 µM. Besides, the negative-log IC50 (pIC50) in the series with SARS-CoV-2 [1] is under 4.7.

As for `OC(CNCC(O)C1CCc2cc(F)ccc2O1)C1CCc2cc(F)ccc2O1` (centres undefined) [NEBIVOLOL], the CC50 at 48 h in “in vitro” (CC50) and in “in vitro” (pCC50) was 8.71 µM in each case. Also, the IC50 is over 20 µM in the series on SARS-CoV-2 [1]; over 100 µM in the series with SARS-CoV-2 [2] (setting [4]); over 100 µM with SARS-CoV-2 [2] (setting [5]); over 10 µM in the series on SARS-CoV-2 [3]; over 10 µM in the series with SARS-CoV-2 [3] (read-out: pIC50 (converted)). The pIC50 with SARS-CoV-2 [1] is listed as under 4.7.

For the compound `COC(=O)C1=C(C)NC(C)=C(C(=O)OC2CCCN(Cc3ccccc3)C2)C1c1cccc([N+](=O)[O-])c1` (centres undefined) [BENIDIPINE], the CC50 at 48 h in “in vitro” (CC50) and in the series “in vitro” (pCC50) was 14.8 µM throughout. Moreover, the IC50 in the series on SARS-CoV-2 [1], with SARS-CoV-2 [2] (setting [4]) and in the series on SARS-CoV-2 [2] (setting [5]) was over 100 µM throughout.

`CC(Cc1ccccc1)NCCC(c1ccccc1)c1ccccc1` (centres undefined) [PRENYLAMINE]: the CC50 at 48 h in “in vitro” (CC50) and in “in vitro” (pCC50) was 10.7 µM each time. In addition, the IC50 was 8.51 µM and > 20 µM with SARS-CoV-2 [1]; over 100 µM with SARS-CoV-2 [2] (setting [4]); over 100 µM with SARS-CoV-2 [2] (setting [5]). Also, the pIC50 in the series on SARS-CoV-2 [1] was 5.07 and < 4.7.
